Results from PMC10709440, “High-throughput ligand profile characterization in novel cell lines expressing seven heterologous insect olfactory receptors for the detection of volatile plant biomarkers” (Scientific Reports, 2023).
Like-named read-outs stand apart in the source and are kept apart here.

Tests used:
[1] = target: T1, Drosophila OR98a (Drosophila melanogaster, UniProt Q9VAZ3); test: Calcium ion fluorescence (GCaMP6) assay, OR98a stable HEK293 cell line; format: cell-based; details: for Average response / OR98a response (VUAA1-normalized) at 1 μM / OR98a response (VUAA1-normalized) at 10 μM / OR98a response (VUAA1-normalized) at 100 μM: OR98a cell line; for Average response: average of biological replicates, fraction of VUAA1 response
T1 construct: expressed in transfected cells
T1 sequence (Q9VAZ3 1-397): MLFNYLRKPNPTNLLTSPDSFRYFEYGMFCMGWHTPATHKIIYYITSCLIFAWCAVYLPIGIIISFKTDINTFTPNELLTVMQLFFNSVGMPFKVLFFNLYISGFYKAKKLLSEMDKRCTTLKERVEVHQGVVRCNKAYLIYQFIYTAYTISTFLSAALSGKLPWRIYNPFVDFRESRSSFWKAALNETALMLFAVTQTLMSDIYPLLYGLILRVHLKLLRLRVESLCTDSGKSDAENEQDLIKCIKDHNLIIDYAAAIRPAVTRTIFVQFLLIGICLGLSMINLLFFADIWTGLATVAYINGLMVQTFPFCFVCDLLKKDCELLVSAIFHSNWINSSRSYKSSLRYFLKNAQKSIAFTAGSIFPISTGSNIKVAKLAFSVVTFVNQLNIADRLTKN
T1 sequence (Q9VNB5 1-486 partner): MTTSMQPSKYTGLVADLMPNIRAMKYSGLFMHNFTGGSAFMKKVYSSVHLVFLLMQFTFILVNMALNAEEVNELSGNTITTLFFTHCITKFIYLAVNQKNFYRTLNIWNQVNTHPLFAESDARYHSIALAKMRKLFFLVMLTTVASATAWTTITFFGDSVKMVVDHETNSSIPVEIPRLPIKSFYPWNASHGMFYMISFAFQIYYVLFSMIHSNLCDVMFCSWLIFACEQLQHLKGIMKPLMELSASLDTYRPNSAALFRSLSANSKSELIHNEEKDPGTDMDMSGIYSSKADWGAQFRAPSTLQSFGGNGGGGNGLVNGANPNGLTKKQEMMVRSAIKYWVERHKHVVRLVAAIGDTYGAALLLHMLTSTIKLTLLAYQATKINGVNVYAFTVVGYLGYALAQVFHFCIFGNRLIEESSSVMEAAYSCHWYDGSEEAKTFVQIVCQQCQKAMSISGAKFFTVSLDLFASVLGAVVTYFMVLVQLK
Procedure, shortened: (§1)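 Responses are VUAA1-normalized ΔF: each VOC-evoked calcium signal, (FMAX−F0)/F0 over 30 s after injection, divided by the same line's mean 50 µM VUAA1 response. Cells were doxycycline-induced HEK293 with GCaMP6 and the cognate Drosophila OR, in HEPES buffer pH 7.3; ligands tested 0.01–100 μM.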

[2] = target: T2, Drosophila OR10a (Drosophila melanogaster, UniProt Q9VYZ1); test: Calcium ion fluorescence (GCaMP6) assay, OR10a stable HEK293 cell line; format: cell-based; details: for OR10a response (VUAA1-normalized) at 1 μM / OR10a response (VUAA1-normalized) at 10 μM / OR10a response (VUAA1-normalized) at 100 μM: OR10a cell line
T2 construct: expressed in transfected cells
T2 sequence (Q9VYZ1 1-406): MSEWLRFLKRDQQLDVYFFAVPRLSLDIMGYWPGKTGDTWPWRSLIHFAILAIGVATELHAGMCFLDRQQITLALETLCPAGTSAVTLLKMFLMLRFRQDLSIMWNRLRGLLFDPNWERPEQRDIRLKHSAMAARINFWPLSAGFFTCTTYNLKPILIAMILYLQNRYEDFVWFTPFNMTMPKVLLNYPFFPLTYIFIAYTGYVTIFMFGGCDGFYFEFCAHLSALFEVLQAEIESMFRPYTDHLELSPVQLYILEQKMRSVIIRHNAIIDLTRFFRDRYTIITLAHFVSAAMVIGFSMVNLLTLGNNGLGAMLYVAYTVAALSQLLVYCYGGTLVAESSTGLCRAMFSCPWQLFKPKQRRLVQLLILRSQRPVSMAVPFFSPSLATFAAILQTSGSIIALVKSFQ
T2 sequence (Q9VNB5 1-486 partner): T1 sequence (Q9VNB5 1-486 partner)
Procedure, shortened: as §1

[3] = HEK293, read-out: Average response
[4] = HEK293, read-out: OR98a Average response (VUAA1-normalized)
[5] = HEK293, read-out: OR98a response (VUAA1-normalized response)
[6] = concentration 1, normalized fluorescence change, values below 0.05 threshold given as 0
[7] = concentration 10, normalized fluorescence change, values below 0.05 threshold given as 0
[8] = concentration 100, normalized fluorescence change, values below 0.05 threshold given as 0
[9] = HEK293, 1 μM VOC, 50 μM VUAA1 = 1, responses not exceeding 0.05 considered 0, read-out: OR10a Average response (VUAA1-normalized)
[10] = HEK293, 10 μM VOC, 50 μM VUAA1 = 1, responses not exceeding 0.05 considered 0, read-out: OR10a Average response (VUAA1-normalized)
[11] = HEK293, 100 μM VOC, 50 μM VUAA1 = 1, responses not exceeding 0.05 considered 0, read-out: OR10a Average response (VUAA1-normalized)
[12] = HEK293, read-out: OR10a response (VUAA1-normalized response), VOC concentration 1 μM
[13] = HEK293, read-out: OR10a response (VUAA1-normalized response), VOC concentration 10 μM
[14] = HEK293, read-out: OR10a response (VUAA1-normalized response), VOC concentration 100 μM
[15] = 1 μM VOC, 50 μM VUAA1 = 1, responses not exceeding 0.05 considered 0
[16] = 10 μM VOC, 50 μM VUAA1 = 1, responses not exceeding 0.05 considered 0
[17] = 100 μM VOC, 50 μM VUAA1 = 1, responses not exceeding 0.05 considered 0
[18] = ligand concentration 1 (unit not given), 0.05 threshold, values below shown as 0
[19] = ligand concentration 10 (unit not given), 0.05 threshold, values below shown as 0
[20] = ligand concentration 100 (unit not given), 0.05 threshold, values below shown as 0
[21] = ligand concentration 1 (unit not given), threshold 0.05, below shown as 0
[22] = ligand concentration 10 (unit not given), threshold 0.05, below shown as 0
[23] = ligand concentration 100 (unit not given), threshold 0.05, below shown as 0

Structure (SMILES)	activation at 1 µM [1, 3]	activation at 10 µM [1, 3]	activation at 100 µM [1, 3]	activation at 1 µM [1, 4]	activation at 10 µM [1, 4]	activation at 100 µM [1, 4]	DF norm AVERAGE OR98a [1, 6]	DF norm AVERAGE OR98a [1, 7]	DF norm AVERAGE OR98a [1, 8]	activation at 1 µM [2, 9]	activation at 10 µM [2, 10]	activation at 100 µM [2, 11]	OR98a response (VUAA1-normalized) at 1 μM ([1]; VOC concentration 1 μM)	OR98a response (VUAA1-normalized) at 10 μM ([1]; VOC concentration 10 μM)	OR98a response (VUAA1-normalized) at 100 μM ([1]; VOC concentration 100 μM)	OR10a response (VUAA1-normalized) at 1 μM ([2]; VOC concentration 1 μM)	OR10a response (VUAA1-normalized) at 10 μM ([2]; VOC concentration 10 μM)	OR10a response (VUAA1-normalized) at 100 μM ([2]; VOC concentration 100 μM)	also measured
CCCCCC(C)=O [2-heptanone]	7%	1.68%	11%	7%	2%	11%	0.06738	0	0.1149	3%	4%	4%							activation at 1 µM [1, 5]: 7%; activation at 10 µM [1, 5]: 0%; activation at 100 µM [1, 5]: 11%; DF norm AVERAGE OR10a [2]: 0; activation at 1 µM [2, 12]: 0%; activation at 10 µM [2, 13]: 0%; activation at 100 µM [2, 14]: 0%
C=C1[C@H]2CC[C@@H]3[C@H]2C(C)(C)CCC[C@]13C [(+)-longifolene]							0	0.1258	0										OR98a response (VUAA1-normalized response) ([1]; VOC concentration 1 μM): 0.00; OR98a response (VUAA1-normalized response) ([1]; VOC concentration 10 μM): 0.13; OR98a response (VUAA1-normalized response) ([1]; VOC concentration 100 μM): 0.00; Average response ([1]; cc. 1 µM): 0.0106; Average response ([1]; cc. 10 µM): 0.13; Average response ([1]; cc. 100 µM): 0.0176; OR10a Average response (VUAA1-normalized) [2, 15]: 0.08; OR10a Average response (VUAA1-normalized) [2, 16]: 0.0537; OR10a Average response (VUAA1-normalized) [2, 17]: 0.028; OR10a response (VUAA1-normalized response) ([2]; VOC concentration 1 μM): 0.08; OR10a response (VUAA1-normalized response) ([2]; VOC concentration 10 μM): 0.0537; OR10a response (VUAA1-normalized response) ([2]; VOC concentration 100 μM): 0.00; DF norm AVERAGE OR10a [2, 7]: 0.05372
CCCCCC(C)O (centres unmarked) [2-heptanol]	3.25%	3.67%	16%	3%	4%	16%	0	0	0.1574	3.76%	7.54%	0%							activation at 1 µM [1, 5]: 0%; activation at 10 µM [1, 5]: 0%; activation at 100 µM [1, 5]: 16%; activation at 1 µM [2, 12]: 0%; activation at 10 µM [2, 13]: 7.54%; activation at 100 µM [2, 14]: 0%
CCCCCCCCCCCCCC [tetradecane]	0%	12%	10%	0%	12%	10%				11%	4.22%	8%	0.00	0.12	0.10	0.11	0.00	0.08	DF norm AVERAGE OR98a [1, 18]: 0; DF norm AVERAGE OR98a [1, 19]: 0.1151; DF norm AVERAGE OR98a [1, 20]: 0.09569; DF norm AVERAGE OR10a ([2]; ligand concentration 1 (unit not given), […]): 0.1095; DF norm AVERAGE OR10a [2, 19]: 0; DF norm AVERAGE OR10a ([2]; ligand concentration 100 (unit not given), […]): 0.08392
CC1=CCC[C@@]2(C)[C@@H]3CC[C@]12CC3(C)C [(−)-α-neoclovene]							0.1483	0	0										OR98a response (VUAA1-normalized response) ([1]; VOC concentration 1 μM): 0.15; OR98a response (VUAA1-normalized response) ([1]; VOC concentration 10 μM): 0.00; OR98a response (VUAA1-normalized response) ([1]; VOC concentration 100 μM): 0.00; Average response ([1]; cc. 1 µM): 0.15; Average response ([1]; cc. 10 µM): 0.00; Average response ([1]; cc. 100 µM): 0.0421; OR10a Average response (VUAA1-normalized) [2, 15]: 0.00; OR10a Average response (VUAA1-normalized) [2, 16]: 0.13; OR10a Average response (VUAA1-normalized) [2, 17]: 0.12; OR10a response (VUAA1-normalized response) ([2]; VOC concentration 1 μM): 0.00; OR10a response (VUAA1-normalized response) ([2]; VOC concentration 10 μM): 0.13; OR10a response (VUAA1-normalized response) ([2]; VOC concentration 100 μM): 0.12
CCCOC(C)=O [propyl acetate]	10%	8%	11%	10%	8%	11%				0%	9%	0%	0.10	0.08	0.11	0.00	0.09	0.00	DF norm AVERAGE OR98a [1, 21]: 0.09538; DF norm AVERAGE OR98a [1, 22]: 0.07848; DF norm AVERAGE OR98a [1, 23]: 0.1069; DF norm AVERAGE OR10a [2, 21]: 0; DF norm AVERAGE OR10a [2, 22]: 0.08914; DF norm AVERAGE OR10a [2, 23]: 0
CC1=CCC23CC1C(C)(C)C2CCC3C (stereo not drawn) [α-funebrene]	0%	9%	5%							0%	0%	2.42%	0.00	0.09	0.05	0.00	0.00	0.00	DF norm AVERAGE OR98a [1, 18]: 0; DF norm AVERAGE OR98a [1, 19]: 0.08582; DF norm AVERAGE OR98a [1, 20]: 0.05199; DF norm AVERAGE OR10a [2, 18]: 0; DF norm AVERAGE OR10a [2, 19]: 0; DF norm AVERAGE OR10a [2, 20]: 0
Cc1ccc(C)cc1 [p-xylene]	0%	2.51%	4%										0.00	0.00	0.00	0.00	0.00	0.0641	DF norm AVERAGE OR98a [1, 21]: 0; DF norm AVERAGE OR98a [1, 22]: 0; DF norm AVERAGE OR98a [1, 23]: 0; activation at 1 µM ([2]; HEK293, read-out: OR10a Average response (VUAA1-normalized), 1 μM VOC, 50 μM VUAA1 = 1, responses not exceeding 0.05 considered 0): 0%; activation at 10 µM ([2]; HEK293, read-out: OR10a Average response (VUAA1-normalized), 10 μM VOC, 50 μM VUAA1 = 1, responses not exceeding 0.05 considered 0): 0%; activation at 100 µM ([2]; HEK293, read-out: OR10a Average response (VUAA1-normalized), 100 μM VOC, 50 μM VUAA1 = 1, responses not exceeding 0.05 considered 0): 6.41%; DF norm AVERAGE OR10a [2, 21]: 0; DF norm AVERAGE OR10a [2, 22]: 0; DF norm AVERAGE OR10a [2, 23]: 0.06412
